Values quoted from earlier work in patent publication US20250032538A1, “METHOD AND COMPOSITION FOR RESTORING HOMEOSTASIS, TREATING, AND PREVENTING DEGENERATIVE DISEASES, ACHIEVING ANTI-AGING EFFECT” (Vector Vitale IP LLC, priority 2023, published 2025).
Like-named read-outs stand apart in the source and are kept apart here.

Experiments:
rats [1] = tested on: rats
rats [2] = settings: rat, in vivo

Row | Compound | half lethal dose (LD50) (rats [1]; intraperitoneal) [mg/kg] | half lethal dose (LD50) (rats [1]; oral administration) [mg/kg] | carcinogenicity: lung tumors (rats [2])
1 | [Cl-].[Cl-].[Cl-].[Sc+3] [scandium (III) chloride] | 4 | 755 | 
2 | Titanium dioxide |  |  | increased lung tumors
